According to PubChem BioAssay (NCI):
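A five-concentration, 48-hour dose response in 96-well plates underlies each endpoint, interpolated linearly between surrounding concentrations. The concentration for 50% growth inhibition is given as GI50. The concentration for full growth arrest is given as TGI.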

Experiments:
Test in all cases: NCI tumour cell line growth inhibition, 48 h
SNB-19 CNS = system: SNB-19 CNS
KM12 colon = system: KM12 colon
T-47D breast = system: T-47D breast
RXF 393 renal = system: RXF 393 renal
SK-MEL-28 melanoma = system: SK-MEL-28 melanoma
MALME-3M melanoma = system: MALME-3M melanoma
HOP-62 NSCLC = system: HOP-62 NSCLC
HS 578T breast = system: HS 578T breast
TK-10 renal = system: TK-10 renal
NCI-H23 lung = system: NCI-H23 lung
OVCAR-4 ovarian = system: OVCAR-4 ovarian
SK-MEL-2 melanoma = system: SK-MEL-2 melanoma
HL-60(TB) leukemia = system: HL-60(TB) leukemia
HCT-15 colon = system: HCT-15 colon
SF-539 CNS = system: SF-539 CNS
MCF7 breast = system: MCF7 breast
RPMI-8226 leukemia = system: RPMI-8226 leukemia
HCT-116 colon = system: HCT-116 colon
PC-3 prostate = system: PC-3 prostate
MDA-MB-468 breast = system: MDA-MB-468 breast
K-562 leukemia = system: K-562 leukemia
HOP-92 NSCLC = system: HOP-92 NSCLC
OVCAR-8 ovarian = system: OVCAR-8 ovarian
UACC-62 melanoma = system: UACC-62 melanoma
NCI-H522 lung = system: NCI-H522 lung
MDA-MB-231 breast = system: MDA-MB-231 breast
SN12C renal = system: SN12C renal
SNB-75 CNS = system: SNB-75 CNS
MDA-MB-435 = system: MDA-MB-435
CCRF-CEM leukemia = system: CCRF-CEM leukemia
OVCAR-3 ovarian = system: OVCAR-3 ovarian
SF-295 CNS = system: SF-295 CNS
M14 melanoma = system: M14 melanoma
SW-620 colon = system: SW-620 colon
EKVX NSCLC = system: EKVX NSCLC
SK-OV-3 ovarian = system: SK-OV-3 ovarian
OVCAR-5 ovarian = system: OVCAR-5 ovarian
HT29 colon = system: HT29 colon
HCC-2998 colon = system: HCC-2998 colon
DU-145 prostate = system: DU-145 prostate
SK-MEL-5 melanoma = system: SK-MEL-5 melanoma
SF-268 CNS = system: SF-268 CNS

CN(CCSSCCN1CCOCC1)C(=O)Oc1cc2c(c3ccccc13)[C@H](CCl)CN2C(=O)c1cc2cc(OCCCN3CCC3)ccc2[nH]1 was tested, and the GI50 (SNB-19 CNS) was 6.65 nM, the TGI (SNB-19 CNS) was 127 nM and the GI50 (KM12 colon) was 30.6 nM. The TGI (KM12 colon) was 5.43 µM, the GI50 (T-47D breast) was 287 nM and the TGI (T-47D breast) was 1700 nM. For the same molecule, the GI50 (RXF 393 renal) was 40.6 nM, the TGI (RXF 393 renal) was 82.9 nM and the GI50 (SK-MEL-28 melanoma) was 29.1 nM. For the same molecule, the TGI (SK-MEL-28 melanoma) was 66.7 nM, the GI50 (MALME-3M melanoma) was 48.1 nM and the TGI (MALME-3M melanoma) was 123 nM. It also gave a GI50 (HOP-62 NSCLC) of 2.51 nM, a TGI (HOP-62 NSCLC) of 28.8 nM and a GI50 (HS 578T breast) of 178 nM. It also gave a TGI (HS 578T breast) of 1100 nM, a GI50 (TK-10 renal) of 971 nM and a TGI (TK-10 renal) of 5.81 µM. For the same molecule, the GI50 (NCI-H23 lung) was 10.1 nM, the TGI (NCI-H23 lung) was 43.3 nM and the GI50 (OVCAR-4 ovarian) was 615 nM. It also gave a TGI (OVCAR-4 ovarian) of 2280 nM, a GI50 (SK-MEL-2 melanoma) of 49.4 nM and a TGI (SK-MEL-2 melanoma) of 95.9 nM. It also gave a GI50 (HL-60(TB) leukemia) of 131 nM, a TGI (HL-60(TB) leukemia) of 1400 nM and a GI50 (HCT-15 colon) of 57.4 nM. The TGI (HCT-15 colon) was 642 nM, the GI50 (SF-539 CNS) was 51.3 nM and the TGI (SF-539 CNS) was 123 nM. It also gave a GI50 (MCF7 breast) of 7.52 nM, a TGI (MCF7 breast) of 2640 nM and a GI50 (RPMI-8226 leukemia) of 473 nM. It also gave a TGI (RPMI-8226 leukemia) of 5.18 µM, a GI50 (HCT-116 colon) of 45.2 nM and a TGI (HCT-116 colon) of 5.04 µM. It also gave a GI50 (PC-3 prostate) of 39.6 nM, a TGI (PC-3 prostate) of 1770 nM and a GI50 (MDA-MB-468 breast) of 40.2 nM. It also gave a TGI (MDA-MB-468 breast) of 173 nM, a GI50 (K-562 leukemia) of 75.1 nM and a TGI (K-562 leukemia) of 2670 nM. The GI50 (HOP-92 NSCLC) was 382 nM, the TGI (HOP-92 NSCLC) was 1440 nM and the GI50 (OVCAR-8 ovarian) was 24.7 nM. The TGI (OVCAR-8 ovarian) was 136 nM, the GI50 (UACC-62 melanoma) was 6.25 nM and the TGI (UACC-62 melanoma) was 32.1 nM. It also gave a GI50 (NCI-H522 lung) of 273 nM, a TGI (NCI-H522 lung) of 1020 nM and a GI50 (MDA-MB-231 breast) of 71.1 nM. The TGI (MDA-MB-231 breast) was 178 nM, the GI50 (SN12C renal) was 64.9 nM and the TGI (SN12C renal) was 1440 nM. It also gave a GI50 (SNB-75 CNS) of 38 nM, a TGI (SNB-75 CNS) of 173 nM and a GI50 (MDA-MB-435) of 36.7 nM. It also gave a TGI (MDA-MB-435) of 104 nM, a GI50 (CCRF-CEM leukemia) of 102 nM and a TGI (CCRF-CEM leukemia) of 9.89 µM. It also gave a GI50 (OVCAR-3 ovarian) of 236 nM, a TGI (OVCAR-3 ovarian) of 2380 nM and a GI50 (SF-295 CNS) of 3.04 nM. It also gave a TGI (SF-295 CNS) of 10.8 nM, a GI50 (M14 melanoma) of 10.1 nM and a TGI (M14 melanoma) of 42.6 nM. For the same molecule, the GI50 (SW-620 colon) was 46.4 nM, the TGI (SW-620 colon) was 2700 nM and the GI50 (EKVX NSCLC) was 42 nM. It also gave a TGI (EKVX NSCLC) of 134 nM, a GI50 (SK-OV-3 ovarian) of 8.67 nM and a TGI (SK-OV-3 ovarian) of 101 nM. The GI50 (OVCAR-5 ovarian) was 67.5 nM, the TGI (OVCAR-5 ovarian) was 266 nM and the GI50 (HT29 colon) was 69.9 nM. The TGI (HT29 colon) was 25 µM, the GI50 (HCC-2998 colon) was 27 nM and the TGI (HCC-2998 colon) was 102 nM. The GI50 (DU-145 prostate) was 11.9 nM, the TGI (DU-145 prostate) was 2980 nM and the GI50 (SK-MEL-5 melanoma) was 6.32 nM. The TGI (SK-MEL-5 melanoma) was 32.1 nM, the GI50 (SF-268 CNS) was 24.4 nM and the TGI (SF-268 CNS) was 849 nM.
